{"source": "patent US9249448B2", "about": "(priority 2010, dated 2016)", "biological_target": "protein of SEQ ID NO 1 (yxel gene product) (Bacillus subtilis, UniProt P54948, G69A/I70F/P219S/T91M)", "sequence (P54948 whole entry G69A/I70F/T91M/P219S)": "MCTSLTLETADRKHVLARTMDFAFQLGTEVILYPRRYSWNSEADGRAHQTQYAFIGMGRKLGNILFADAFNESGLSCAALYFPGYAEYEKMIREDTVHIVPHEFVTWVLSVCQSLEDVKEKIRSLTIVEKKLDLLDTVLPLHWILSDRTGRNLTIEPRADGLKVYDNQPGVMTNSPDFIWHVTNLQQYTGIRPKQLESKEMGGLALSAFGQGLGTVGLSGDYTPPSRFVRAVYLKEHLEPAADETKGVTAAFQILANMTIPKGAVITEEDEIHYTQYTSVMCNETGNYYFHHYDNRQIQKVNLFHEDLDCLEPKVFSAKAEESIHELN", "details": "sodium acetate 100 mM final concentration; substrate 0.2 mg/ml, 37°, 15 min, PBS buffer; compared with background activity of plasmid-free E. coli strain", "text": "Cells obtained as in example 2 were harvested by centrifugation and washed twice with PBS buffer to remove residual medium components. The final cell pellet was resuspended in PBS buffer (per liter water: 8 g NaCl, 0.2 g KCl, 1.44 g Na2HPO4, 0.24 g K H2PO4, pH 7.4) to reach a final OD600 of 30. This cell suspension of strains (either without plasmid or carrying the expression vectors described in Example 1) was used for the activity tests. The washed cell suspensions were contacted in PBS buffer with N-alpha-lauryl-glutamin (0.2 mg/ml final concentration, “LG” in FIG. 35), at 37° (final volume 0.25 ml) for 15 min. The actual test was performed as described in example 7 of WO 02/092024 A2, with GC as the test method.", "data": [{"compound": "CC(=O)[O-].[Na+]", "note": "[sodium acetate]", "values": [{"measurement": "enzyme activity (inhibition of N-alpha-lauryl-glutamin cleavage)", "value": "inhibited to the level of the background activity"}]}]}
